{
  "source": "paper PMC5218480",
  "about": "(PLoS ONE, 2017)",
  "tested_on": "MV-4-11 cells",
  "experiment": "Gene expression microarray analysis (Affymetrix PrimeView) and GSEA",
  "assay_type": "cell-based, human",
  "design": "RFU PODN (11730768_x_at) / Fold change /veh PODN (11730768_x_at) / RFU LINC00158 (11744669_a_at) / Fold change /veh LINC00158 (11744669_a_at) / RFU DUSP10 (11751237_a_at) / Fold change /veh DUSP10 (11751237_a_at) / RFU ID3 (11757404_x_at) / Fold change /veh ID3 (11757404_x_at) / RFU PLEKHG5 (11737974_s_at) / Fold change /veh PLEKHG5 (11737974_s_at) / RFU LRRC4B (11730491_at) / Fold change /veh LRRC4B (11730491_at) / RFU GIMAP4 (11747438_a_at) / Fold change /veh GIMAP4 (11747438_a_at) / RFU KRT8 (11758183_x_at) / Fold change /veh KRT8 (11758183_x_at) / RFU CNN1 (11734310_a_at) / Fold change /veh CNN1 (11734310_a_at) / RFU VPS37D (11726825_at) / Fold change /veh VPS37D (11726825_at) / RFU C10orf10 (11716522_x_at) / Fold change /veh C10orf10 (11716522_x_at) / RFU KIR2DL2 /// KIR2DL4 /// KIR2DL5A /// KIR2DL5B /// KIR2DS1 /// KIR2DS2 /// KIR2DS3 /// KIR2DS4 /// KIR3DL3 /// KIR3DL3 /// KIR3DS1 (11738374_at) / Fold change /veh KIR2DL2 /// KIR2DL4 /// KIR2DL5A /// KIR2DL5B /// KIR2DS1 /// KIR2DS2 /// KIR2DS3 /// KIR2DS4 /// KIR3DL3 /// KIR3DL3 /// KIR3DS1 (11738374_at) / RFU C1QL1 (11718748_at) / Fold change /veh C1QL1 (11718748_at) / RFU TMPRSS4 (11747572_a_at) / Fold change /veh TMPRSS4 (11747572_a_at) / RFU HAMP (11756126_x_at) / Fold change /veh HAMP (11756126_x_at) / RFU RNFT2 (11725882_a_at) / Fold change /veh RNFT2 (11725882_a_at) / RFU NR4A2 (11747474_a_at) / Fold change /veh NR4A2 (11747474_a_at) / RFU ABCC12 (11746883_a_at) / Fold change /veh ABCC12 (11746883_a_at) / RFU TMEM136 (11760407_x_at) / Fold change /veh TMEM136 (11760407_x_at) / RFU CLDN22 /// WWC2 (11732394_at) / Fold change /veh CLDN22 /// WWC2 (11732394_at) / RFU HLA-DPB1 (11760878_x_at) / Fold change /veh HLA-DPB1 (11760878_x_at) / RFU SPINT1 (11716480_a_at) / Fold change /veh SPINT1 (11716480_a_at) / RFU GAP43 (11754022_s_at) / Fold change /veh GAP43 (11754022_s_at) / RFU A4GNT (11735810_at) / Fold change /veh A4GNT (11735810_at) / RFU PRB3 (11715151_x_at) / Fold change /veh PRB3 (11715151_x_at) / RFU TUBB4B (11761932_at) / Fold change /veh TUBB4B (11761932_at) / RFU CAPN14 (11732068_a_at) / Fold change /veh CAPN14 (11732068_a_at) / RFU TMCC2 (11721928_a_at) / Fold change /veh TMCC2 (11721928_a_at) / RFU IRGQ (11745062_a_at) / Fold change /veh IRGQ (11745062_a_at) / RFU FAM174B (11720279_a_at) / Fold change /veh FAM174B (11720279_a_at) / RFU TMPRSS4 (11748680_a_at) / Fold change /veh TMPRSS4 (11748680_a_at) / RFU FAM212B (11763350_a_at) / Fold change /veh FAM212B (11763350_a_at) / RFU PLEKHG5 (11743358_a_at) / Fold change /veh PLEKHG5 (11743358_a_at) / RFU ZSCAN30 (11745921_a_at) / Fold change /veh ZSCAN30 (11745921_a_at) / RFU CMKLR1 (11741424_a_at) / Fold change /veh CMKLR1 (11741424_a_at) / RFU LOC101060620 /// MAPK8IP1 (11723275_at) / Fold change /veh LOC101060620 /// MAPK8IP1 (11723275_at) / RFU SPTSSB (11747773_x_at) / Fold change /veh SPTSSB (11747773_x_at) / RFU PRSS12 (11739890_at) / Fold change /veh PRSS12 (11739890_at) / RFU BIN1 (11741810_x_at) / Fold change /veh BIN1 (11741810_x_at) / RFU WNT11 (11732464_a_at) / Fold change /veh WNT11 (11732464_a_at) / RFU C10orf10 (11716521_a_at) / Fold change /veh C10orf10 (11716521_a_at) / RFU C5orf56 (11738089_at) / Fold change /veh C5orf56 (11738089_at) / RFU CYB561 (11721691_x_at) / Fold change /veh CYB561 (11721691_x_at) / RFU ANKRD19P (11752326_a_at) / Fold change /veh ANKRD19P (11752326_a_at) / RFU OR2T12 /// OR2T33 /// OR2T8 (11738714_s_at) / Fold change /veh OR2T12 /// OR2T33 /// OR2T8 (11738714_s_at) / RFU VCAN (11748164_a_at) / Fold change /veh VCAN (11748164_a_at) / RFU JSRP1 (11732532_at) / Fold change /veh JSRP1 (11732532_at) / RFU KRTAP10-11 (11738290_x_at) / Fold change /veh KRTAP10-11 (11738290_x_at) / RFU MYO3A (11730013_a_at) / Fold change /veh MYO3A (11730013_a_at) / RFU EBF3 (11725865_a_at) / Fold change /veh EBF3 (11725865_a_at) / RFU CAMK2N1 (11719241_x_at) / Fold change /veh CAMK2N1 (11719241_x_at) / RFU C5orf56 (11738088_a_at) / Fold change /veh C5orf56 (11738088_a_at) / RFU OLFML3 (11715873_a_at) / Fold change /veh OLFML3 (11715873_a_at) / RFU LOC100653217 /// NTM (11731650_a_at) / Fold change /veh LOC100653217 /// NTM (11731650_a_at) / RFU MAPK11 (11762145_a_at) / Fold change /veh MAPK11 (11762145_a_at) / RFU FIZ1 (11724087_x_at) / Fold change /veh FIZ1 (11724087_x_at) / RFU OASL (11726364_x_at) / Fold change /veh OASL (11726364_x_at) / RFU SOX15 (11748057_x_at) / Fold change /veh SOX15 (11748057_x_at) / RFU CD79A (11719716_a_at) / Fold change /veh CD79A (11719716_a_at) / RFU HIST1H1D (11736915_at) / Fold change /veh HIST1H1D (11736915_at) / RFU CASKIN2 (11723855_a_at) / Fold change /veh CASKIN2 (11723855_a_at) / RFU LOC730098 (11760151_x_at) / Fold change /veh LOC730098 (11760151_x_at) / RFU OR4N2 (11742367_at) / Fold change /veh OR4N2 (11742367_at) / RFU PRRT2 (11749266_a_at) / Fold change /veh PRRT2 (11749266_a_at) / RFU SNX32 (11753110_a_at) / Fold change /veh SNX32 (11753110_a_at) / RFU CDHR5 (11726645_a_at) / Fold change /veh CDHR5 (11726645_a_at) / RFU RCAN1 (11760418_a_at) / Fold change /veh RCAN1 (11760418_a_at) / RFU FAM167A (11723789_a_at) / Fold change /veh FAM167A (11723789_a_at) / RFU FAM26E (11764081_at) / Fold change /veh FAM26E (11764081_at) / RFU ISYNA1 (11749810_s_at) / Fold change /veh ISYNA1 (11749810_s_at) / RFU ACY1 (11761880_at) / Fold change /veh ACY1 (11761880_at) / RFU 11764098_at / Fold change /veh 11764098_at / RFU SAMD14 (11745864_x_at) / Fold change /veh SAMD14 (11745864_x_at) / RFU NPB (11741838_a_at) / Fold change /veh NPB (11741838_a_at) / RFU TMPRSS6 (11731388_a_at) / Fold change /veh TMPRSS6 (11731388_a_at) / RFU KRTAP10-2 (11738614_at) / Fold change /veh KRTAP10-2 (11738614_at) / RFU ARHGAP8 /// PRR5-ARHGAP8 (11727945_x_at) / Fold change /veh ARHGAP8 /// PRR5-ARHGAP8 (11727945_x_at) / RFU KRTAP5-7 /// NADSYN1 (11734609_at) / Fold change /veh KRTAP5-7 /// NADSYN1 (11734609_at) / RFU RASL12 (11751679_a_at) / Fold change /veh RASL12 (11751679_a_at) / RFU CDKN2B (11736163_a_at) / Fold change /veh CDKN2B (11736163_a_at) / RFU PRF1 (11729649_at) / Fold change /veh PRF1 (11729649_at) / RFU, ZNF638 /// ZNF638-IT1 / Fold change vs veh, ZNF638 /// ZNF638-IT1 / RFU, PANK3 / Fold change vs veh, PANK3 / RFU, SH3YL1 / Fold change vs veh, SH3YL1 / RFU, ZEB2 / Fold change vs veh, ZEB2 / RFU, NRIP1 / Fold change vs veh, NRIP1 / RFU, PTTG1IP / Fold change vs veh, PTTG1IP / RFU, CAPN2 / Fold change vs veh, CAPN2 / RFU, MED14 / Fold change vs veh, MED14 / RFU, SNORA58 / Fold change vs veh, SNORA58 / RFU, C1orf63 / Fold change vs veh, C1orf63 / RFU, LRRFIP1 / Fold change vs veh, LRRFIP1 / RFU, NDUFAF7 / Fold change vs veh, NDUFAF7 / RFU, SLC12A2 / Fold change vs veh, SLC12A2 / RFU, IBTK / Fold change vs veh, IBTK / RFU, ESF1 / Fold change vs veh, ESF1 / Fold change vs veh, TMEM50B / RFU, TAOK1 / Fold change vs veh, TAOK1 / RFU, ACBD3 / Fold change vs veh, ACBD3 / RFU, TMA16 / Fold change vs veh, TMA16 / RFU, RWDD3 / Fold change vs veh, RWDD3 / RFU, BCAT1 / Fold change vs veh, BCAT1 / RFU, EDEM3 / Fold change vs veh, EDEM3 / RFU, TMEM33 / Fold change vs veh, TMEM33 / RFU, WDR75 / Fold change vs veh, WDR75 / RFU, AHCTF1 / Fold change vs veh, AHCTF1 / RFU, TFRC / Fold change vs veh, TFRC / RFU, ZDHHC17 / Fold change vs veh, ZDHHC17 / RFU, NOM1 / Fold change vs veh, NOM1 / RFU, ARL8B / Fold change vs veh, ARL8B / RFU, ZBTB11 / Fold change vs veh, ZBTB11 / RFU, TAMM41 / Fold change vs veh, TAMM41 / RFU, KIAA1704 /// LOC100996395 / Fold change vs veh, KIAA1704 /// LOC100996395 / RFU, ING1 / Fold change vs veh, ING1 / RFU, TRMT61B / Fold change vs veh, TRMT61B / RFU, FUBP3 / Fold change vs veh, FUBP3 / RFU, TP53 / Fold change vs veh, TP53 / RFU, TNKS2 / Fold change vs veh, TNKS2 / RFU, ZFP14 / Fold change vs veh, ZFP14 / RFU, ACTR2 / Fold change vs veh, ACTR2 / RFU, PPP3R1 / Fold change vs veh, PPP3R1 / RFU, PIK3R1 / Fold change vs veh, PIK3R1 / RFU, HNRNPA1 / Fold change vs veh, HNRNPA1 / RFU, RNF170 / Fold change vs veh, RNF170 / RFU, ZNF28 / Fold change vs veh, ZNF28 / RFU, RNGTT / Fold change vs veh, RNGTT / RFU, OGT / Fold change vs veh, OGT / RFU, BRD1 / Fold change vs veh, BRD1 / RFU, MARS / Fold change vs veh, MARS / RFU, ZNF655 / Fold change vs veh, ZNF655 / RFU, FAHD1 / Fold change vs veh, FAHD1 / RFU, BDP1 / Fold change vs veh, BDP1 / RFU, LRRCC1 / Fold change vs veh, LRRCC1 / RFU, ARID1A / Fold change vs veh, ARID1A / RFU, ZNF146 / Fold change vs veh, ZNF146 / RFU, ZNF330 / Fold change vs veh, ZNF330 / RFU, GPN3 / Fold change vs veh, GPN3 / RFU, C9orf123 / Fold change vs veh, C9orf123 / RFU, N4BP2L2 / Fold change vs veh, N4BP2L2 / RFU, ARFIP1 / Fold change vs veh, ARFIP1 / RFU, FAM179B / Fold change vs veh, FAM179B / RFU, BCL10 / Fold change vs veh, BCL10 / RFU, UHRF1BP1L / Fold change vs veh, UHRF1BP1L / RFU, BET1 / Fold change vs veh, BET1 / RFU, CNOT2 / Fold change vs veh, CNOT2 / RFU, ZNF268 / Fold change vs veh, ZNF268 / Fold change vs veh, ZNF507 / RFU, DGCR2 / Fold change vs veh, DGCR2 / RFU, WDSUB1 / Fold change vs veh, WDSUB1 / Fold change vs veh, HSP90B1 /// MIR3652 / RFU, ADSS / Fold change vs veh, ADSS / RFU, GK / Fold change vs veh, GK / RFU, ZNF148 / Fold change vs veh, ZNF148 / RFU, TAF9 / Fold change vs veh, TAF9 / RFU, SLC1A5 / Fold change vs veh, SLC1A5 / RFU, SLMO2 / Fold change vs veh, SLMO2 / RFU, ABCC4 / Fold change vs veh, ABCC4 / RFU, LOC101060439 /// RAP1B / Fold change vs veh, LOC101060439 /// RAP1B / RFU, RFX7 / Fold change vs veh, RFX7 / RFU, GTPBP10 / Fold change vs veh, GTPBP10 / RFU, CNEP1R1 / Fold change vs veh, CNEP1R1 / RFU, BIVM-ERCC5 /// ERCC5 / Fold change vs veh, BIVM-ERCC5 /// ERCC5 / RFU, ILF3 / Fold change vs veh, ILF3 / RFU 11762660_at / Fold change /veh 11762660_at / RFU VCAN (11757783_s_at) / Fold change /veh VCAN (11757783_s_at) / RFU DDX43 (11728927_at) / Fold change /veh DDX43 (11728927_at) / RFU KRT8 (11758188_x_at) / Fold change /veh KRT8 (11758188_x_at) / RFU NKD1 (11759106_at) / Fold change /veh NKD1 (11759106_at) / RFU SRD5A1 (11742802_a_at) / Fold change /veh SRD5A1 (11742802_a_at) / RFU TPSAB1 /// TPSB2 (11721975_s_at) / Fold change /veh TPSAB1 /// TPSB2 (11721975_s_at) / RFU GSTM3 (11746129_a_at) / Fold change /veh GSTM3 (11746129_a_at) / RFU IL23R (11737362_x_at) / Fold change /veh IL23R (11737362_x_at) / RFU TMEM51 (11727254_a_at) / Fold change /veh TMEM51 (11727254_a_at) / RFU PIWIL2 (11732686_x_at) / Fold change /veh PIWIL2 (11732686_x_at) / RFU ORM1 (11744905_x_at) / Fold change /veh ORM1 (11744905_x_at) / RFU CCDC152 (11743942_at) / Fold change /veh CCDC152 (11743942_at) / RFU ECM1 (11717891_a_at) / Fold change /veh ECM1 (11717891_a_at) / RFU IL23R (11748794_a_at) / Fold change /veh IL23R (11748794_a_at) / RFU TNFAIP8L3 (11732012_x_at) / Fold change /veh TNFAIP8L3 (11732012_x_at) / RFU MBOAT4 (11741988_at) / Fold change /veh MBOAT4 (11741988_at) / RFU 11764193_at / Fold change /veh 11764193_at / RFU TMEM53 (11763286_at) / Fold change /veh TMEM53 (11763286_at) / RFU MAGEB2 (11727129_at) / Fold change /veh MAGEB2 (11727129_at) / RFU TMEM200A (11744735_a_at) / Fold change /veh TMEM200A (11744735_a_at) / RFU CCDC152 (11751479_a_at) / Fold change /veh CCDC152 (11751479_a_at) / RFU FAM211A (11726209_a_at) / Fold change /veh FAM211A (11726209_a_at) / RFU RGS16 (11746705_a_at) / Fold change /veh RGS16 (11746705_a_at) / RFU VCAN (11755009_s_at) / Fold change /veh VCAN (11755009_s_at) / RFU RHOB (11743442_s_at) / Fold change /veh RHOB (11743442_s_at) / RFU RGS16 (11720943_a_at) / Fold change /veh RGS16 (11720943_a_at) / RFU RGS16 (11720944_at) / Fold change /veh RGS16 (11720944_at) / RFU, VPS4B / Fold change vs veh, VPS4B / RFU, CREB1 / Fold change vs veh, CREB1 / RFU, DNAJC13 / Fold change vs veh, DNAJC13 / RFU, GNAQ / Fold change vs veh, GNAQ / RFU, CDK5R1 / Fold change vs veh, CDK5R1 / RFU, ZRANB3 / Fold change vs veh, ZRANB3 / RFU, CUL4A / Fold change vs veh, CUL4A / RFU, CCNY / Fold change vs veh, CCNY / RFU, UFL1 / Fold change vs veh, UFL1 / RFU, COG3 / Fold change vs veh, COG3 / RFU, DIAPH2 / Fold change vs veh, DIAPH2 / RFU, SKA2 / Fold change vs veh, SKA2 / RFU, AFF3 / Fold change vs veh, AFF3 / RFU, LMF1 / Fold change vs veh, LMF1 / RFU, IPO11 / Fold change vs veh, IPO11 / RFU, DFFB / Fold change vs veh, DFFB / RFU, FOXP1 / Fold change vs veh, FOXP1 / RFU, CARD8 / Fold change vs veh, CARD8 / RFU, STRN3 / Fold change vs veh, STRN3 / RFU, ADK / Fold change vs veh, ADK / RFU, RASSF2 / Fold change vs veh, RASSF2 / RFU, WIPF1 / Fold change vs veh, WIPF1 / RFU, LARP1B / Fold change vs veh, LARP1B / RFU, RASA1 / Fold change vs veh, RASA1 / RFU, RB1 / Fold change vs veh, RB1 / RFU, PPFIA1 / Fold change vs veh, PPFIA1 / RFU, MAT2A / Fold change vs veh, MAT2A / RFU, CCT5 / Fold change vs veh, CCT5 / RFU, WDR92 / Fold change vs veh, WDR92 / RFU, CUX1 / Fold change vs veh, CUX1 / RFU, TTC7A / Fold change vs veh, TTC7A / RFU, TMEM135 / Fold change vs veh, TMEM135 / RFU, DEPTOR / Fold change vs veh, DEPTOR / RFU, CPM / Fold change vs veh, CPM / RFU, DNAJB6 / Fold change vs veh, DNAJB6 / RFU, CACNA2D3 / Fold change vs veh, CACNA2D3 / RFU, DTX4 / Fold change vs veh, DTX4 / RFU, TFCP2 / Fold change vs veh, TFCP2 / RFU, GMCL1 /// GMCL1P1 / Fold change vs veh, GMCL1 /// GMCL1P1 / RFU, AEBP2 / Fold change vs veh, AEBP2 / RFU, SNHG1 /// SNORD22 /// SNORD25 /// SNORD26 /// SNORD27 /// SNORD28 /// SNORD29 /// SNORD31 / Fold change vs veh, SNHG1 /// SNORD22 /// SNORD25 /// SNORD26 /// SNORD27 /// SNORD28 /// SNORD29 /// SNORD31 / Fold change (Aza/veh), C12orf56 (ProbeSet 11735607_a_at) / Fold change (ACY-1035/veh), C12orf56 (ProbeSet 11735607_a_at) / Fold change (Aza/veh), FGFR1OP (ProbeSet 11751329_s_at) / Fold change (ACY-1035/veh), FGFR1OP (ProbeSet 11751329_s_at) / Fold change (Aza/veh), VPS36 (ProbeSet 11739960_a_at) / Fold change (ACY-1035/veh), VPS36 (ProbeSet 11739960_a_at) / RFU SYPL1 (11715823_x_at) / Fold change /veh SYPL1 (11715823_x_at) / RFU IGFBP7 (11715501_s_at) / Fold change /veh IGFBP7 (11715501_s_at) / RFU REEP3 (11722064_at) / Fold change /veh REEP3 (11722064_at) / RFU IGLL1 (11728026_x_at) / Fold change /veh IGLL1 (11728026_x_at): dose or concentration left out as unconfirmed",
  "conditions": "MV-4-11 cells, 48 hours",
  "data": [
    {"smiles": "Nc1ccc(-c2cccs2)cc1NC(=O)c1ccc2c(c1)cc(C1CC1)n2CCN1CCOCC1", "note": "[ACY-1035]", "values": [
      {"measurement": "Fold change /veh TUBB4B (11761932_at)", "result": 1.03}
    ]}
  ]
}
